For test [1], the system named is SKBR-3. The test is described as follows: MTT proliferation assay, SKBR-3. To be noted: Table 2, Breast, SKBR-3, 120 hrs of exposure. Format: cell-based, human. The procedure: The human colorectal adenocarcinoma line HCT-116 (CCL-247) and the human breast adenocarcinoma line SK-BR-3 (HTB-30) were cultured in McCoy's 5a Medium (Invitrogen) containing 1.5 mM L-glutamine and 2.2 g/L sodium bicarbonate. The human colorectal adenocarcinoma line SW620 (CCL-227) was cultured in Leibovitz's L-15 Medium (Invitrogen) containing 2.05 mM L-glutamine.
(§1) Proliferation Assays. IC50 values were determined for each cell line. Cells were seeded in 96-well plates at an appropriate cell density as determined from growth kinetics analysis and cultured for 5 days in the absence and presence of the test compounds. Cell proliferation was assessed after the addition of 20 μl of 3-4,5 dimethylthiazol-2,5-diphenyl tetrazolium bromide (MTT, 5 mg/ml in PBS, Sigma) for 5 hrs at 37° C. according to manufacturer's instructions. IC50 values were calculated from semi-log plots of % of control proliferation on the y-axis against log dose on the x-axis.
(§2) Anti-proliferative Activity of Isoflavonoid Derivatives. IC50 values were determined for each cell line after 120 h of exposure.

For test [2], the system named is A2780 ovarian cancer cells. The test is described as follows: Combination with carboplatin, proliferation of A2780 cells. Format: cell-based. As to conditions: for enhancement of the anti-cancer effect of carboplatin: A2780, depending on exposure regimen (24 hr concurrent or sequential). The method, then:
In vitro toxicity in normal and cancer cells. Cells were seeded in 96-well plates at an appropriate cell density as determined from growth kinetics analysis. Depending on the plating efficiency and lag phase of individual cell lines, cells were allowed to plate down prior to drug exposure. Intra-experimental single agent controls were included to ensure IC50 values obtained for each cell line matched previous IC50 determinations. Four analogue concentrations were employed in each analysis. Analogue concentrations used in each assay were chosen based on IC50 values, which formed the top concentration of analogue used. Subsequent concentrations were chosen based on simple ½ or 1/10 dilutions of the top analogue concentration employed (i.e. 2, 1, 0.5, 0.25 μM). Nine 1/10 serial dilutions of chemotherapeutic were employed with the top chemotherapeutic concentration being 50 μM.
For combined analysis, analogue concentrations were held constant through 1/10 serial dilutions of chemotherapeutic in growth medium (top chemotherapeutic concentration employed was 50 μM). Combined cultures were cultured for 5 days.
The sequence of administration effect of each agent on chemotherapeutic IC50 values was assessed by exposing plated cells to a single agent in sequence for 24 hr. To assess the isoflavonoid derivative→chemotherapeutic sequence, plated cells were first exposed to the appropriate analogue concentrations and incubated at 37° C. for 24 hr. Cells were washed with growth medium and then exposed to the appropriate chemotherapeutic concentrations and incubated for 24 hr. Cells were then washed and incubated for a further 3 days. To assess the chemotherapeutic→isoflavonoid derivative sequence, the procedure was reversed.
Cell proliferation was assessed after the addition of 20 μl of 3-4,5 dimethylthiazol-2,5-diphenyl tetrazolium bromide (MTT, 2.5 mg/ml in PBS, Sigma) for 3-4 hrs at 37° C. according to manufacturer's instructions. IC50 values were calculated from semi-log plots of % of control proliferation on the y-axis against log dose on the x-axis.
3-D model analysis of the cytotoxic interaction between drug A and drug B enables the representation of predicted inhibitory effect of two drugs in combination in 3 dimensions to reveal actual regions of synergy or antagonism. The 3D synergy plots are based on a theory of “Theoretical Additivity” (TA or […]) as outlined by Kanzawa et al. Theoretical Additivity was calculated from the cytotoxicities of drug A and drug B as monotherapies using the following formula which assumes the drugs are mutually exclusive inhibitors: […]
The TA is calculated for each combination of drug concentrations and subtracted from the observed experimental effect for each combination to give a measurement of synergistic or enhanced action.
Combination index (CI) analysis, which employs the median-effect principle correlating drug dose to cytotoxicity, was also employed to assess synergy. The median-effect equation is utilized to calculate the dose of a drug that inhibits “x” percent of cells (Chou and Talalay, 1984). D=Dm[fa/(1−fa)]^1/m
In vitro Assessment of Combination of Optically Active Compound 31 and Carboplatin. Combination studies employed both 24 hr concurrent exposure, and 24 hr sequential exposure (racemic compound 32→Carboplatin) regimens. In both studies, four analogue concentrations (0.25, 0.5, 1 and 5 μM) were held constant against titrated carboplatin. When 1 and 5 μM of compound 32 was assessed in combination with the lowest concentration of carboplatin employed in this study (0.4 μM), no IC50 for carboplatin was achieved due the high levels of cell kill observed (30-40% of control).

Test [3] deals with CP70. The test is described as follows: MTT proliferation assay, CP70. The format is cell-based. As to conditions: Table 2, Ovarian, CP70, 120 hrs of exposure. The procedure: as §1, §2
The test system of test [4] is MDA-MB-468. The test is described as follows: MTT proliferation assay, MDA-MB-468. The format is cell-based, human. As to conditions: Table 2, Breast, MDA-MB-468, 120 hrs of exposure. The method, then:
The human gastric cancer cell line AGS (CRL-1739) was cultured in Hams F-12K (Kaighans modification) medium containing 2 mM L-glutamine, 2.5 g/L sodium bicarbonate and 2 mM sodium pyruvate. The human breast adenocarcinoma line MDA-MB-468 (HTB-132) was cultured in DMEM:F12 (1:1) medium containing 2.5 mM L-glutamine, 2.4 g/L sodium bicarbonate, supplemented with an additional 2 mM L-glutamine.
as §1, §2

Test [5] relates to MM2200. The test is described as follows: MTT proliferation assay, MM2200. Format: cell-based. To be noted: Table 2, Melanoma, MM2200, 120 hrs of exposure. The method, then: as §1, §2
Activity data is provided is Table 2.

For test [6], the system named is PC3. The experiment in a line: MTT proliferation assay, PC3. Format: cell-based. As to conditions: Table 2, Prostate, PC3, 120 hrs of exposure. The procedure: as §1, §2
Test [7] concerns A2058. The experiment in a line: MTT proliferation assay, A2058. As to conditions: Homo sapiens, A2058, 120 h, Table 2, Melanoma, A2058, 120 hrs of exposure. The format is cell-based. The procedure:
as §1, §2

The test system of test [8] is A2780. The test is described as follows: MTT proliferation assay, A2780. Format: cell-based. As to conditions: Table 2, Ovarian, A2780, 120 hrs of exposure. The procedure:
as §1, §2

Some results are limits rather than exact numbers.

Consider `Oc1ccc([C@H]2c3ccc(O)cc3OC[C@H]2c2ccc(O)cc2)cc1` (racemic) [Compound 32], for which the IC50 in test [1] was 510 to 1500 nM; in test [3] it was 510 to 1500 nM; in test [4], 510 to 1500 nM; in test [5], 510 to 1500 nM; in test [6], 510 to 1500 nM; in test [7], 150 to 500 nM. The compound further showed an IC50 in test [8] of 510 to 1500 nM. For the same compound, the “enhancement of the anti-cancer effect of carboplatin” value is 1.5-2 fold in test [2] (0.25 μM of compound) and 7-11 fold in test [2] (0.5 μM of compound). In addition, the “cell kill level observed (no IC50 for carboplatin achieved)” value in test [2] (1 and 5 μM of compound plus 0.4 μM carboplatin, A2780) was 30-40 % of control. Also, the “compound concentration giving maximal activity enhancement with carboplatin” value in test [2] (3D method of Kanzawa, 12.5 μM carboplatin, A2780) was determined as 0.5 µM.
`Oc1ccc([C@@H]2c3ccc(O)cc3OC[C@@H]2c2ccc(O)cc2)cc1` [Compound 33]: the IC50 in test [1] (Homo sapiens, SK-BR-3, 120 h) was ≥ 10000 nM; in test [3] (120 h), ≥ 10000 nM; in test [5] it was ≥ 10000 nM; in test [8] (Homo sapiens, A2780, 120 h), ≥ 10000 nM. In addition, the “activity enhancement in combination with carboplatin” value in test [2] (A2780 cell line, 31 compared with compound 32) was “did not impart any activity enhancement or antagonistic effect”.
